Laboratory results taken from the NIST ThermoML archive (doi:10.1021/je800234h).

Experiment: mn = molality of the nth substance listed, in mol/kg
Settings: Liquid, Vibrating tube method

[Ca+2].[Cl-].[Cl-] [calcium chloride] + CCO
Settings | mass density [kg/m3]
373.15 K, 30290 kPa, m1 = 0.09327 | 758.06
373.15 K, 30410 kPa, m1 = 0.1743 | 764.51
373.15 K, 35070 kPa, m1 = 1.266 | 842.89
373.15 K, 35370 kPa, m1 = 0.4379 | 787.22
373.15 K, 35420 kPa, m1 = 0.09327 | 762.76
373.15 K, 35480 kPa, m1 = 1.55 | 862.67
373.15 K, 35840 kPa, m1 = 0.6899 | 804.85
373.15 K, 35870 kPa, m1 = 0.1743 | 768.88
373.15 K, 35870 kPa, m1 = 0.9896 | 825.32
373.15 K, 39260 kPa, m1 = 0.4379 | 790.31
373.15 K, 39740 kPa, m1 = 0.1743 | 771.57
373.15 K, 39910 kPa, m1 = 0.09327 | 766.53
373.15 K, 39940 kPa, m1 = 0.6899 | 807.94
373.15 K, 39960 kPa, m1 = 0.9896 | 828.19
373.15 K, 39970 kPa, m1 = 1.266 | 846.74
373.15 K, 39970 kPa, m1 = 1.55 | 865.39
398.15 K, 620 kPa, m1 = 1.266 | 780.71
398.15 K, 680 kPa, m1 = 0.09327 | 692.59
398.15 K, 740 kPa, m1 = 1.55 | 801.26
398.15 K, 950 kPa, m1 = 0.4379 | 719.54
398.15 K, 970 kPa, m1 = 0.6899 | 737.62
398.15 K, 1030 kPa, m1 = 0.1743 | 700.75
398.15 K, 1060 kPa, m1 = 0.9896 | 760.33
398.15 K, 5070 kPa, m1 = 0.1743 | 707.51
398.15 K, 5070 kPa, m1 = 0.9896 | 766.76
398.15 K, 5100 kPa, m1 = 0.09327 | 700.41
398.15 K, 5160 kPa, m1 = 0.6899 | 744.53
398.15 K, 5180 kPa, m1 = 1.266 | 786.93
398.15 K, 5380 kPa, m1 = 0.4379 | 726.88
398.15 K, 5470 kPa, m1 = 1.55 | 808.33
398.15 K, 10020 kPa, m1 = 0.6899 | 752.01
398.15 K, 10060 kPa, m1 = 1.266 | 793.27
398.15 K, 10080 kPa, m1 = 0.09327 | 708.63
398.15 K, 10290 kPa, m1 = 0.4379 | 734.49
398.15 K, 10460 kPa, m1 = 1.55 | 815.02
398.15 K, 10540 kPa, m1 = 0.1743 | 716.08
398.15 K, 10540 kPa, m1 = 0.9896 | 774.89
398.15 K, 15240 kPa, m1 = 0.6899 | 759.43
398.15 K, 15290 kPa, m1 = 0.1743 | 722.99
398.15 K, 15290 kPa, m1 = 0.9896 | 781.35
398.15 K, 15410 kPa, m1 = 0.09327 | 716.75
398.15 K, 15610 kPa, m1 = 0.4379 | 742.12
398.15 K, 15620 kPa, m1 = 1.266 | 800.09
398.15 K, 15620 kPa, m1 = 1.55 | 821.29
398.15 K, 20030 kPa, m1 = 0.09327 | 723.21
398.15 K, 20080 kPa, m1 = 1.266 | 805.26
398.15 K, 20140 kPa, m1 = 0.1743 | 729.54
398.15 K, 20140 kPa, m1 = 1.55 | 826.33
398.15 K, 20410 kPa, m1 = 0.9896 | 787.68
398.15 K, 20480 kPa, m1 = 0.4379 | 748.53
398.15 K, 20620 kPa, m1 = 0.6899 | 766.4
398.15 K, 24980 kPa, m1 = 0.1743 | 735.56
398.15 K, 25060 kPa, m1 = 0.09327 | 729.63
398.15 K, 25080 kPa, m1 = 0.9896 | 792.89
398.15 K, 25340 kPa, m1 = 0.4379 | 754.4
398.15 K, 25340 kPa, m1 = 1.55 | 831.69
398.15 K, 25640 kPa, m1 = 1.266 | 811.31
398.15 K, 25890 kPa, m1 = 0.6899 | 772.57
398.15 K, 30030 kPa, m1 = 1.266 | 815.79
398.15 K, 30060 kPa, m1 = 0.4379 | 759.57
398.15 K, 30140 kPa, m1 = 0.6899 | 777.06
398.15 K, 30170 kPa, m1 = 0.09327 | 735.52
398.15 K, 30470 kPa, m1 = 1.55 | 836.6
398.15 K, 30740 kPa, m1 = 0.9896 | 798.47
398.15 K, 30780 kPa, m1 = 0.1743 | 742.1
398.15 K, 35180 kPa, m1 = 0.09327 | 740.65
398.15 K, 35180 kPa, m1 = 0.4379 | 764.61
398.15 K, 35460 kPa, m1 = 0.1743 | 746.84
398.15 K, 35740 kPa, m1 = 1.266 | 821.22
398.15 K, 35830 kPa, m1 = 1.55 | 841.39
398.15 K, 35940 kPa, m1 = 0.6899 | 782.51
398.15 K, 35970 kPa, m1 = 0.9896 | 802.93
398.15 K, 39290 kPa, m1 = 0.6899 | 785.29
398.15 K, 39380 kPa, m1 = 0.4379 | 768.3
398.15 K, 39760 kPa, m1 = 1.55 | 844.7
398.15 K, 39790 kPa, m1 = 0.1743 | 750.79
398.15 K, 39860 kPa, m1 = 0.9896 | 805.8
398.15 K, 39920 kPa, m1 = 0.09327 | 744.93
398.15 K, 39920 kPa, m1 = 1.266 | 824.91
